Laboratory results: ChEMBL document CHEMBL1154148, “Ascomycones A-C, heptaketide metabolites from an unidentified ascomycete” (J Nat Prod, 2008)
In brackets after ≈: the same amount, converted by molar mass. Activity calls are given as the source filed them. The rule behind the calls is not given here.

Tests used:
Caenorhabditis elegans = assay: Nematicidal activity against Caenorhabditis elegans at 100 ug/ml; format: functional, organism-based
Pyricularia grisea = assay: Antimicrobial activity against Magnaporthe grisea assessed as inhibition of conidial germination after 16 hrs by inverted microscopic analysis; format: functional
Fusarium graminearum = assay: Antimicrobial activity against Fusarium graminearum assessed as inhibition of conidial germination after 16 hrs by inverted microscopic analysis; format: functional
Botrytis cinerea = assay: Antimicrobial activity against Botrytis cinerea assessed as inhibition of conidial germination after 16 hrs by inverted microscopic analysis; format: functional
Phytophthora infestans = assay: Antimicrobial activity against Phytophthora infestans assessed as inhibition of conidial germination after 16 hrs by inverted microscopic analysis; format: functional
Penicillium chrysogenum = assay: Antimicrobial activity against Penicillium notatum assessed as inhibition of conidial germination after 16 hrs by inverted microscopic analysis; format: functional
Paecilomyces variotii = assay: Antimicrobial activity against Paecilomyces variotii assessed as inhibition of conidial germination after 16 hrs by inverted microscopic analysis; format: functional
Rhizomucor miehei = assay: Antimicrobial activity against Mucor miehei assessed as inhibition of conidial germination after 16 hrs by inverted microscopic analysis; format: functional
Brevibacillus brevis = assay: Antimicrobial activity against Bacillus brevis at 50 ug/disk by agar diffusion assay; format: functional; conditions: read-out: IZ
Bacillus subtilis = assay: Antimicrobial activity against Bacillus subtilis at 50 ug/disk by agar diffusion assay; format: functional; conditions: read-out: IZ
Eremothecium coryli = assay: Antimicrobial activity against Nematospora coryli at 50 ug/disk by agar diffusion assay; format: functional; conditions: read-out: IZ
Escherichia coli = assay: Antimicrobial activity against Escherichia coli K-12 by serial dilution test; format: functional
[1] = tested on: Enterobacter cloacae subsp. dissolvens; assay: Antimicrobial activity against Enterobacter dissolvens by serial dilution test; format: functional
Proteus vulgaris = assay: Antimicrobial activity against Proteus vulgaris by serial dilution test; format: functional
[2] = Cytotoxicity against human HeLaS3 cells assessed as reduction in cell proliferation; format: functional, cell-based; conditions: HeLa S3
Lepidium sativum [3] = assay: […] against Lepidium sativum assessed as seed germination up to 300 ug/ml; format: functional, organism-based
Setaria italica [4] = assay: […] against Setaria italica assessed as seed germination up to 300 ug/ml; format: functional, organism-based
Meloidogyne incognita = assay: Nematicidal activity against Meloidogyne incognita at 100 ug/ml; format: functional, organism-based
Lepidium sativum [5] = assay: […] against Lepidium sativum assessed as inhibition of seedling growth up to 300 ug/ml; format: functional, organism-based
Setaria italica [6] = assay: […] against Setaria italica assessed as inhibition of seedling growth up to 300 ug/ml; format: functional, organism-based

Structure (SMILES)	Activity (Caenorhabditis elegans)	IC100 (Pyricularia grisea) [µg/mL]	IC100 (Fusarium graminearum) [µg/mL]	IC100 (Botrytis cinerea) [µg/mL]	IC100 (Phytophthora infestans) [µg/mL]	IC100 (Penicillium chrysogenum) [µg/mL]	IC100 (Paecilomyces variotii) [µg/mL]	IC100 (Rhizomucor miehei) [µg/mL]	zone of inhibition at 50 µg/disc (Brevibacillus brevis) [mm]	zone of inhibition at 50 µg/disc (Bacillus subtilis) [mm]	zone of inhibition at 50 µg/disc (Eremothecium coryli) [mm]	MIC (Escherichia coli) [µg/mL]	MIC [1] [µg/mL]	MIC (Proteus vulgaris) [µg/mL]	IC50 [2] [µg/mL]	Activity (Lepidium sativum [3])	Activity (Setaria italica [4])	Activity (Meloidogyne incognita)	Activity (Lepidium sativum [5])	Activity (Setaria italica [6])
CO/C=C1/C(=O)c2c(O)cc(OC)cc2C(=O)C1(O)CC(C)=O (configuration not stated) [ASCOMYCONE C]	inactive	2.5	2.5	50	5	15	>50	>50	7	0	11	> 50	> 50	> 50	50 (≈ 156 µM)	inactive	inactive	inactive	inactive	inactive
COc1cc(O)c2c(c1)C(=O)C1=C(C2=O)C(O)OC(C)=C1 (configuration not stated) [ASCOMYCONE B]	inactive	1	0.5	5	5	10	>50	10	11	10	13	> 50	> 50	> 50	5 (≈ 17.3 µM)	inactive	inactive	inactive	inactive	inactive
COc1cc(O)c2c(c1)C(=O)C1=C(C2=O)C(OC)OC(C)=C1 (configuration not stated) [ASCOMYCONE A]	inactive			>50		>50	>50	50	14	11	0	> 50	> 50	> 50	5 (≈ 16.5 µM)	inactive	inactive	inactive	inactive	inactive
